Laboratory results as given in DBAASP.
≈ marks a conversion by molar mass, not a printed value. One block for each compound: values may come before it.

Assays:
Assay in all cases: ≥ marks a high value that may be exact or a test limit, other limits are often not marked, values filed in µg/mL are converted to µM
[1] = system: Staphylococcus haemolyticus
[2] = system: Escherichia coli DH5alpha
[3] = system: Escherichia coli K-12 D31
Saccharomyces cerevisiae = system: Saccharomyces cerevisiae
Morganella morganii = system: Morganella morganii
[4] = system: Staphylococcus saprophyticus
Candida albicans = system: Candida albicans
Salmonella enterica = system: Salmonella enterica
Staphylococcus warneri = system: Staphylococcus warneri
Bacillus subtilis = system: Bacillus subtilis
Enterococcus faecium = system: Enterococcus faecium
Staphylococcus aureus = system: Staphylococcus aureus
[5] = system: Aeromonas hydrophila BCRC 13018
[6] = system: Helicobacter pylori ATCC 43504
Vibrio vulnificus 204 = system: Vibrio vulnificus 204
[7] = system: Streptococcus agalactiae 819
Vibrio alginolyticus = system: Vibrio alginolyticus
[8] = system: Helicobacter pylori ATCC 700392
Helicobacter pylori = system: Helicobacter pylori
[9] = system: Streptococcus agalactiae BCRC 10787
[10] = system: Pseudomonas aeruginosa ATCC 19660
[11] = system: Helicobacter pylori ATCC 43629
[12] = system: Enterococcus faecalis BCRC 10066
[13] = system: Batrachochytrium dendrobatidis JEL-197
[14] = system: Escherichia coli ATCC 25726
[15] = system: Staphylococcus aureus ATCC 25923
[16] = system: Candida albicans ATCC 90028
[17] = system: Acinetobacter baumannii NM8
[18] = system: Staphylococcus epidermidis RP62A
[19] = system: Pseudomonas aeruginosa ATCC 27853
[20] = system: Klebsiella pneumoniae ATCC 700603
[21] = system: Stenotrophomonas maltophilia B32/4
[22] = system: Staphylococcus epidermidis RP62A/1
Nocardia brasiliensis = system: Nocardia brasiliensis
Aeromonas caviae = system: Aeromonas caviae
Aspergillus fumigatus = system: Aspergillus fumigatus
Trichophyton simii = system: Trichophyton simii
Enterococcus faecalis = system: Enterococcus faecalis
Trichophyton rubrum = system: Trichophyton rubrum
Aspergillus niger = system: Aspergillus niger
Escherichia coli = system: Escherichia coli
Microsporum canis = system: Microsporum canis
Cryptococcus neoformans = system: Cryptococcus neoformans

SMILES: CC[C@H](C)[C@H](NC(=O)[C@H](CC(C)C)NC(=O)[C@H](CCCCN)NC(=O)CNC(=O)[C@H](C)NC(=O)[C@H](Cc1cnc[nH]1)NC(=O)[C@@H](NC(=O)[C@H](CC(C)C)NC(=O)CNC(=O)[C@H](Cc1cnc[nH]1)NC(=O)[C@H](Cc1ccccc1)NC(=O)[C@@H](NC(=O)[C@H](CC(C)C)NC(=O)CNC(=O)[C@H](CC(C)C)NC(=O)[C@@H](N)Cc1ccccc1)[C@@H](C)CC)C(C)C)C(=O)N[C@@H](Cc1cnc[nH]1)C(=O)NCC(=O)N[C@@H](CC(C)C)C(=O)N[C@H](C(=O)N[C@@H](Cc1cnc[nH]1)C(=O)N[C@@H](CCCN=C(N)N)C(=O)N[C@@H](CC(N)=O)C(=O)N[C@@H](CCCN=C(N)N)C(=O)NCC(=O)O)[C@@H](C)CC [FLGLIFHGLVHAGKLIHGLIHRNRG]
MIC [1]: 7.5 µM (≈ 20.8 µg/mL)
MIC [2]: 7.5 µM (≈ 20.8 µg/mL)
MIC [3]: 3 µM (≈ 8.33 µg/mL)
MIC (Saccharomyces cerevisiae): ≥ 384 µM
MIC (Morganella morganii): 12 µM (≈ 33.3 µg/mL)
MIC [4]: 7.5 µM (≈ 20.8 µg/mL)
MIC (Candida albicans): 96 µM (≈ 267 µg/mL)
MIC (Salmonella enterica): 6 µM (≈ 16.7 µg/mL)
MIC (Staphylococcus warneri): 15 µM (≈ 41.6 µg/mL)
MIC (Bacillus subtilis): ≥ 48 µM
MIC (Enterococcus faecium): 15 µM (≈ 41.6 µg/mL)
MIC (Staphylococcus aureus): 1.5 µM (≈ 4.16 µg/mL)

SMILES: CC[C@H](C)[C@H](NC(=O)[C@H](CO)NC(=O)[C@@H]1CCCN1C(=O)[C@@H](NC(=O)[C@H](CC(C)C)NC(=O)CNC(=O)[C@@H](NC(=O)[C@H](CC(C)C)NC(=O)[C@@H](NC(=O)[C@@H]1CCCN1C(=O)[C@H](CC(C)C)NC(=O)[C@@H](N)Cc1ccccc1)C(C)C)[C@@H](C)O)[C@@H](C)O)C(=O)N[C@H](C(=O)N1CCC[C@H]1C(=O)N[C@@H](CCCCN)C(=O)N[C@@H](CC(C)C)C(=O)N[C@H](C(=O)N[C@H]1CSSC[C@@H](C(=O)O)NC(=O)[C@H](CCCCN)NC(=O)[C@H](CCCCN)NC(=O)[C@H]([C@@H](C)O)NC(=O)[C@H](CC(C)C)NC(=O)[C@H](CC(C)C)NC1=O)C(C)C)C(C)C [FLPVLTGLTPSIVPKLVCLLTKKC]
MIC [13]: ≥ 50 µM
MIC [14]: ≥ 100 µM
MIC [15]: 50 µM (≈ 129 µg/mL)
MIC [16]: ≥ 100 µM

Second part, the compound after the results:

MIC [5]: 6.22 µM (≈ 17.6 µg/mL)
MIC [6]: 4.23 µM (≈ 12 µg/mL)
MIC (Vibrio vulnificus 204): 6.22 µM (≈ 17.6 µg/mL)
MIC [7]: 6.22 µM (≈ 17.6 µg/mL)
MIC (Vibrio alginolyticus): 6.22 µM (≈ 17.6 µg/mL)
MIC [8]: 4.23 µM (≈ 12 µg/mL)
MIC (Helicobacter pylori): 4.23 µM (≈ 12 µg/mL)
MIC [9]: 6.22 µM (≈ 17.6 µg/mL)
MIC [10]: 6.22 µM (≈ 17.6 µg/mL)
MIC [11]: 4.23 µM (≈ 12 µg/mL)
MIC [12]: 6.22 µM (≈ 17.6 µg/mL)
SMILES: CC[C@H](C)[C@H](NC(=O)[C@H](CC(C)C)NC(=O)[C@H](CCC(=O)O)NC(=O)[C@H](CCC(N)=O)NC(=O)[C@H](CC(C)C)NC(=O)[C@@H](NC(=O)[C@H](CCCCN)NC(=O)[C@H](CCC(N)=O)NC(=O)[C@@H](NC(=O)[C@@H](NC(=O)[C@H](CCC(=O)O)NC(=O)CNC(=O)[C@H](CO)NC(=O)[C@@H](NC(=O)[C@H](CCC(N)=O)NC(=O)[C@H](CCCCN)NC(=O)CNC(=O)[C@H](CCC(N)=O)NC(=O)[C@H](CC(C)C)NC(=O)[C@@H](N)CCC(N)=O)C(C)C)C(C)C)C(C)C)C(C)C)C(=O)N[C@@H](CCC(N)=O)C(=O)N[C@@H](CO)C(=O)N[C@H](C(=O)N[C@@H](C)C(=O)N[C@@H](CCCCN)C(=O)N1CCC[C@H]1C(N)=O)C(C)C [QLQGKQVSGEVVQKVLQELIQSVAKP]

MIC [14]: ≥ 256 µM
MIC [17]: ≥ 128 µM
MIC [15]: 128 µM (≈ 220 µg/mL)
MIC [18]: ≥ 128 µM
MIC [16]: ≥ 64 µM
MIC [19]: > 256 µM
MIC [20]: > 256 µM
MIC [21]: ≥ 256 µM
MIC [22]: ≥ 128 µM
SMILES: CC[C@H](C)[C@H](N)C(=O)N[C@@H](CC(C)C)C(=O)NCC(=O)N[C@@H](C)C(=O)N[C@H](C(=O)N[C@@H](CC(C)C)C(=O)N1CCC[C@H]1C(=O)N[C@@H](CC(C)C)C(=O)N[C@H](C(=O)N[C@@H](CO)C(=O)NCC(=O)N[C@@H](CC(C)C)C(=O)N[C@@H](CC(C)C)C(=O)N[C@@H](CO)C(=O)N[C@@H](CC(N)=O)C(=O)N[C@@H](CCCCN)C(=O)N[C@@H](CC(C)C)C(N)=O)C(C)C)[C@@H](C)CC [ILGAILPLVSGLLSNKL]

MIC (Nocardia brasiliensis): 6.87 µM (≈ 20 µg/mL)
MIC (Aeromonas caviae): 13.7 µM (≈ 40 µg/mL)
MIC (Aspergillus fumigatus): 27.5 µM (≈ 80 µg/mL)
MIC (Trichophyton simii): 3.44 µM (≈ 10 µg/mL)
MIC (Enterococcus faecalis): 3.44 µM (≈ 10 µg/mL)
MIC (Trichophyton rubrum): 5.16 µM (≈ 15 µg/mL)
MIC (Aspergillus niger): ≥ 34.4 µM
MIC (Candida albicans): 5.16 µM (≈ 15 µg/mL)
MIC (Escherichia coli): 3.44 µM (≈ 10 µg/mL)
MIC (Microsporum canis): 3.44 µM (≈ 10 µg/mL)
MIC (Cryptococcus neoformans): 6.87 µM (≈ 20 µg/mL)
SMILES: CC[C@H](C)[C@H](NC(=O)[C@H](Cc1ccc(O)cc1)NC(=O)[C@H](Cc1cnc[nH]1)NC(=O)[C@H](CCCN=C(N)N)NC(=O)[C@H](CC(C)C)NC(=O)[C@H](C)NC(=O)[C@@H](NC(=O)[C@H](CC(C)C)NC(=O)[C@H](Cc1ccc(O)cc1)NC(=O)[C@H](CCCCN)NC(=O)[C@H](CC(N)=O)NC(=O)[C@H](CCSC)NC(=O)[C@H](CCC(=O)O)NC(=O)[C@H](CCC(=O)O)NC(=O)[C@@H]1CCCN1)[C@@H](C)O)C(=O)N[C@@H](CC(N)=O)C(=O)N[C@@H](CC(C)C)C(=O)N[C@H](C(=O)N[C@H](C(=O)N[C@@H](CCCN=C(N)N)C(=O)N[C@@H](CCC(N)=O)C(=O)N[C@@H](CCCN=C(N)N)C(=O)N[C@@H](Cc1ccc(O)cc1)C(N)=O)[C@@H](C)O)C(C)C [PEEMNKYLTALRHYINLVTRQRY]
